According to paper PMC8128076 (RSC Medicinal Chemistry, 2021):
Where two headings read alike, the source gives them in different places.

What was measured:
[1] = target: T1, mTOR (Homo sapiens, UniProt P42345); assay: LanthaScreen TR-FRET displacement binding assay, mTOR
[2] = system: human MDR1 (P-gp); assay: in vitro; conditions: dog, MDCK-MDR1
[3] = system: phosphorylated S6 ribosomal protein [pS6, Ser235/236]; conditions: read-out: Cellular assays IC50 pS6 S235/236; A2058 melanoma cells; previously reported, ref [14]; cited from earlier work
[4] = target: PI3Kα (p110α) (Homo sapiens, UniProt P42336); conditions: read-out: In vitro binding assays Ki PI3Kα; TR-FRET displacement, mean ± SD; previously reported, ref [14]; cited from earlier work
Sequence of PI3Kα (p110α) (P42336 whole entry): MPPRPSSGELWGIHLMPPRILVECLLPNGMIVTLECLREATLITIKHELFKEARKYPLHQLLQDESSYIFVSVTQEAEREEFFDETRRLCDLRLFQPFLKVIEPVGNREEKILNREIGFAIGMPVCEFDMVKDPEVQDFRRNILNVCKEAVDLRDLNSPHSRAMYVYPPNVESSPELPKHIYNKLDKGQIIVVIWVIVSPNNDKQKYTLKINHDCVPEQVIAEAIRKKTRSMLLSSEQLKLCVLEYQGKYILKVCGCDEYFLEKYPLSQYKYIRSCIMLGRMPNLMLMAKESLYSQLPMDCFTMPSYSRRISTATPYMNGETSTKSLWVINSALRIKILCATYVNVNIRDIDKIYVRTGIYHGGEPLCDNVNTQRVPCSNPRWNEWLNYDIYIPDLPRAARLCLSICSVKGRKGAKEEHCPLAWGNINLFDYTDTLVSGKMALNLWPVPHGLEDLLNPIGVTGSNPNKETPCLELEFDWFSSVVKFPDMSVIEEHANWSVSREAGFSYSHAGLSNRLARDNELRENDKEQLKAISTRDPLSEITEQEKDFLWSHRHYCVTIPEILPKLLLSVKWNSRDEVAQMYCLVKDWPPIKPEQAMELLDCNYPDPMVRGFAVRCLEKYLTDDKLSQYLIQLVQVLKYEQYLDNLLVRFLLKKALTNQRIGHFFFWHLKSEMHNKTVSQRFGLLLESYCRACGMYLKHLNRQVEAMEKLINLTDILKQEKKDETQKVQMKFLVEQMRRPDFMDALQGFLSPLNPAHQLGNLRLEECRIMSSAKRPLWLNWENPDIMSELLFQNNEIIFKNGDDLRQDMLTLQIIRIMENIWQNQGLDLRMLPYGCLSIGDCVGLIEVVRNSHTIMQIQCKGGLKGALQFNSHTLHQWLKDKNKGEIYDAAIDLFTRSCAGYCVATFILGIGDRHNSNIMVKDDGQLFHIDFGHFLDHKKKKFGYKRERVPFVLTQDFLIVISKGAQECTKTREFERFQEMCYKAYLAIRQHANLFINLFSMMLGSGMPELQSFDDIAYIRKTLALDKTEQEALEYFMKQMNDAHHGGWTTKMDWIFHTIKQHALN
Sequence of PI3Kα (p110α) (P27986 whole entry partner): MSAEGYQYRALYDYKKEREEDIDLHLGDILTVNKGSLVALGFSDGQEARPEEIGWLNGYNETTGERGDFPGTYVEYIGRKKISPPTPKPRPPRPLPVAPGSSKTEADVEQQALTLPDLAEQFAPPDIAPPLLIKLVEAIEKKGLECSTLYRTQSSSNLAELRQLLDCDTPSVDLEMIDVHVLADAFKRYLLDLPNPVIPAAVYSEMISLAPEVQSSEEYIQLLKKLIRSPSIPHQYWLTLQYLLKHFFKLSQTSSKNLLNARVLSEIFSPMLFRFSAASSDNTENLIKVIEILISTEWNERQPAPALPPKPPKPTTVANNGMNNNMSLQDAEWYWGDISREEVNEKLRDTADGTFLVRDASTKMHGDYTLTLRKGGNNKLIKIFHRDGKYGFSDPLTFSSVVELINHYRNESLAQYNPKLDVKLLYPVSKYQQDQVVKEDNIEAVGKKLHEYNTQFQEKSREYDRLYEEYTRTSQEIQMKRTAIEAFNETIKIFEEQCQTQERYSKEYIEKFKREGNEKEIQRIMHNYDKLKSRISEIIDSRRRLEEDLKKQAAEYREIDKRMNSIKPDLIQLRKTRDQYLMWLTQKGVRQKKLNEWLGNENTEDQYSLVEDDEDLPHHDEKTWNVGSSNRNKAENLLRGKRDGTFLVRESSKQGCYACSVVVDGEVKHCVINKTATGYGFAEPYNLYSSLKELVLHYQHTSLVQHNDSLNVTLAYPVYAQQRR

[5] = target: T1, mTOR; conditions: previously reported, ref [14], cited from earlier work; for SI (selectivity index), Ki(PI3Kα)/Ki(mTOR): mTOR over PI3Kα

T1 sequence (P42345 1360-2549): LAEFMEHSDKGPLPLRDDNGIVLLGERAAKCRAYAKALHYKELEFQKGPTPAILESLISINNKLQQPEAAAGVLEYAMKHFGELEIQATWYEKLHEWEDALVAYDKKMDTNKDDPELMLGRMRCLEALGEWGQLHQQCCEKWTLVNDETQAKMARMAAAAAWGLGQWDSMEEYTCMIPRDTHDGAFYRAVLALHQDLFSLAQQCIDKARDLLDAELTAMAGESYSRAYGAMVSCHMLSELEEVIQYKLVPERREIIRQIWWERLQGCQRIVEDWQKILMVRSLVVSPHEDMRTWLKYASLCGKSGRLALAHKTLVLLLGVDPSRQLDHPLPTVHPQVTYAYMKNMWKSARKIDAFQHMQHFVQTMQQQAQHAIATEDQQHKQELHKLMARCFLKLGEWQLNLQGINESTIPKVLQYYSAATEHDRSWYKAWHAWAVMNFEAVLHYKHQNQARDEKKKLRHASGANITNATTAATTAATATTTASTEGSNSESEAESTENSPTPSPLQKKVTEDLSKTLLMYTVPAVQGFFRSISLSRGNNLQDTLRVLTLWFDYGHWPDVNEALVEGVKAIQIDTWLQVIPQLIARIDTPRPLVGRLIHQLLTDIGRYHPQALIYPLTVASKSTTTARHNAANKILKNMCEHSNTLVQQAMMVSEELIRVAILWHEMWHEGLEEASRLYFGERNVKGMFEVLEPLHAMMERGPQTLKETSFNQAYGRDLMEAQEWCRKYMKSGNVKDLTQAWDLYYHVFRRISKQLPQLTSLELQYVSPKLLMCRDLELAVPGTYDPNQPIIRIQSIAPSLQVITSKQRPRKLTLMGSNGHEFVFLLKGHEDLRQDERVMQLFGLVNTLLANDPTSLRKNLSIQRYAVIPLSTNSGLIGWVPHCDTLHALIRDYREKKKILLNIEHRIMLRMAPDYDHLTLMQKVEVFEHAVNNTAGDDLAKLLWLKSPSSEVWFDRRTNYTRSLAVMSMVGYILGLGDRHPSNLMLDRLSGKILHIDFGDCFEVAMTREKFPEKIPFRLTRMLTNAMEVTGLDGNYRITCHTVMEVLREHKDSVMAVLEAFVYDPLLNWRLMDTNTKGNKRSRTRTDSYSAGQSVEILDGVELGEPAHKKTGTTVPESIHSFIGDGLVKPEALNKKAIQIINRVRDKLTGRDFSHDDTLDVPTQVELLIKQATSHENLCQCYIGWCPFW

| Structure (SMILES) | Papp [2] | IC50 [3] | Ki [4] | SI (selectivity index), Ki(PI3Kα)/Ki(mTOR) [5] | further results |
| --- | --- | --- | --- | --- | --- |
| C[C@@H]1COCCN1c1nc(-c2nc(N)ns2)nc2c1C[C@@H]1COCCN21 [Compound 2] |  |  |  |  | fold decrease in mTOR affinity ([1]; 1,2,4-thiadiazole 2 versus pyrimidine 1): > 10 fold |
| C[C@@H]1COCCN1c1nc(-c2nnc(N)s2)nc2c1C[C@@H]1COCCN21 [Compound 4] | < 60 ×10⁻⁶ cm/s |  |  |  |  |
| C[C@@H]1COCCN1c1nc(-c2ccc(N)nc2)nc2c1C[C@@H]1COCCN21 [Compound 5] |  | 61 ± 12 nM | 2150 ± 400 nM | 215 | Ki ([5]; read-out: In vitro binding assays Ki mTOR, TR-FRET displacement, mean ± SD): 10 ± 1.6 nM |
| C[C@@H]1COCCN1c1nc(-c2cnc(N)s2)nc2c1C[C@@H]1COCCN21 [Compound 6] | < 60 ×10⁻⁶ cm/s |  |  |  |  |
| C[C@@H]1COCCN1c1nc(-c2cnc(N)nc2C(F)F)nc2c1C[C@@H]1COCCN21 [Compound 8] |  |  |  |  | SI (selectivity index), Ki(PI3Kα)/Ki(mTOR) ([1]; mTOR over PI3Kα): < 1 |
| C[C@@H]1COCCN1c1nc(-c2cnc(N)cn2)nc2c1C[C@@H]1COCCN21 [Compound 12b, reference compound] | < 60 ×10⁻⁶ cm/s | 60 ± 13 nM | 1690 ± 277 nM | 212 |  |
